Laboratory results: patent US9096615B2, “Bridged bicyclic amino thiazine dioxide compounds as inhibitors of beta-secretase and methods of use thereof” (AMGEN INC., priority 2013, dated 2015)
Read-outs that look alike come from different tables or passages of the source.

Key:
BACE1 = BACE1 (Homo sapiens, UniProt P56817); test: In vitro enzymatic BACE FRET assay; format: biochemical
Experimental: In Vitro Enzymatic BACE FRET (Fluorescence Resonance Energy Transfer) Assay
Enzyme Assay Data in the Example Table I
The assay buffer used in this screen is 0.05 M acetate, pH 4.2, 10% DMSO final, 100 uM genapol (which is a nonionic detergent, below its Critical Micelle Concentration). The Beta Secretase enzyme (0.2 nM) is pre-incubated for one hour with inhibitors, typically in about 1 uL of DMSO according to a serial dilution, are added thereto. This assay is effectively started by the addition of FRET substrate (50 nM) and the combination is incubated for one hour. The FRET assay is terminated with by addition of Tris buffer, which raises the pH to neutrality, and the fluorescence is determined. The FRET substrate is a peptide with commercially available fluorophore and quencher, on opposite sides of the BACE cleavage site. Proteolytic cleavage of the FRET substrate releases quenching of fluorescence (excitation 488 nm and […]).

[1] = test system: Aβ40 in conditioned medium of cells stably expressing Amyloid Precursor Protein (APP); test: In vitro BACE cell-based assay (HEK cell assay, Aβ40 sandwich ELISA); details: Homo sapiens, HEK293
Experimental: In Vitro BACE Cell-Based Assay
The cell-based assay measures inhibition or reduction of Aβ40 in conditioned medium of test compound treated cells expressing amyloid precursor protein.
Cells stably expressing Amyloid Precursor Protein (APP) were plated at a density of 40K cells/well in 96 well plates (Costar). The cells were cultivated for 24 hours at 37° C. and 5% CO2 in DMEM supplemented with 10% FBS. The test compounds were then added to cells in 10-point dose response concentrations with the starting concentration being either 100 μM or 10 μM. The compounds were diluted from stock solutions in DMSO and the final DMSO concentration of the test compounds on cells was 0.1%. After 24 h of incubation with the test compounds the supernatant conditioned media was collected and the Aβ 40 levels were determined using a sandwich ELISA. The IC50 of the compound was calculated from the percent of control or percent inhibition of Aβ 40 as a function of the concentration of the test compound.
The sandwich ELISA to detect Aβ 40 was performed in 96 well microtiter plates, which were pre-treated with goat anti-rabbit IgG (Pierce). The capture and detecting antibody pair that were used to detect Aβ 40 from cell supernatants were affinity purified pAb40 (Biosource) and biotinylated 6E10 (Signet Labs Inc.), respectively. The optimal concentration for the pAb40 antibody was 3 μg/ml in Superblock/TBS (Pierce) that was supplemented with 0.05% Tween 20 (Sigma). Optimal concentration for the detection antibody 6E10-biotinylated was 0.5 μg/ml in Superblock/TBS (Pierce) that had been supplemented with 2% normal goat serum and 2% normal mouse serum.
Cellular supernatants were incubated with the capture antibody for 3 h at 4° C., followed by 3 wash steps in TBS-tween (0.05%). The detecting antibody incubation was for 2 h at 4° C., again followed by the wash steps as described previously. The final readout of the ELISA is Time-Resolved Fluorescence (counts per minute) using Delfia reagents Streptavidin-Europium and Enhancement solutions (Perkin Elmer) and the Victor 2 multilabel counter (Perkin Elmer).

Cathepsin D (Cat D) = target: T1, Cathepsin D (Cat D) (Homo sapiens, UniProt P07339); test: In vitro enzymatic Cathepsin D (Cat D) FRET assay; format: biochemical; details: read-out: CatD IC50
T1 construct: made in house; host or cells: CHO cells
Experimental: In Vitro Enzymatic Cathepsin D (Cat D) FRET (Fluorescence Resonance Energy Transfer) Assay
Recombinant Cat D was expressed in CHO cells. The assay buffer for CathepsinD is 0.05 M citrate pH 3.5, 10% DMSO final, 5 mM CHAPS. The Cat D enzyme (9 nM) is pre-incubated for one hour with inhibitors, typically in about 1 uL of DMSO according to a serial dilution, is added thereto. The assays are effectively started by the addition of different FRET substrates (20 nM for Cat D) and the combination is incubated for one hour. The FRET assay is terminated with by addition of Tris buffer, which raises the pH to neutrality, and the fluorescence is determined. The FRET substrate is a peptide with commercially available fluorophore and quencher, on opposite sides of the BACE cleavage site. The Cat D substrate peptide sequence is based on sequence #1 of Table 1 from Gulnik et al. FEBS Letters v413 p 379-384 1997. Proteolytic cleavage of the FRET substrate releases quenching of fluorescence (Cat D excitation 500 nm and emission 580 nm). […]
Where available, the in-vitro Cat D FRET assay data for each of the Examples, conducted by the first procedure, is provided in Tables 1 and 3. For example, the compound of example 28 has a Cat D IC50 value of >400 uM.

[2] = read-out: BACE1 FRET assay IC50
[3] = Aβ40, 24 h incubation, read-out: HEK cell assay IC50
[4] = average IC50, read-out: BACE1 Enzyme assay IC50
[5] = average IC50, read-out: BACE1 cell assay IC50

T1 sequence (P07339 65-412, species assumed): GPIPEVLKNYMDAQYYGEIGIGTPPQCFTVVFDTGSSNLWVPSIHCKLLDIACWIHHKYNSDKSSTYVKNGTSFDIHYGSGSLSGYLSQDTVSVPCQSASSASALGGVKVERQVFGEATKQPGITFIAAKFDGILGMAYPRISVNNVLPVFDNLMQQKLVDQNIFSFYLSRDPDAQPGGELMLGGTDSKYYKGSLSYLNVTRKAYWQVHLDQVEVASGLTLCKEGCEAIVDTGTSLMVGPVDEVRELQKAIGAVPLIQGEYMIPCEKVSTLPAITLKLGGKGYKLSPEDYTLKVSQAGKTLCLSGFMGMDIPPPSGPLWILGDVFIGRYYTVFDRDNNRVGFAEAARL
BACE1, sequence (P56817 46-501, species assumed): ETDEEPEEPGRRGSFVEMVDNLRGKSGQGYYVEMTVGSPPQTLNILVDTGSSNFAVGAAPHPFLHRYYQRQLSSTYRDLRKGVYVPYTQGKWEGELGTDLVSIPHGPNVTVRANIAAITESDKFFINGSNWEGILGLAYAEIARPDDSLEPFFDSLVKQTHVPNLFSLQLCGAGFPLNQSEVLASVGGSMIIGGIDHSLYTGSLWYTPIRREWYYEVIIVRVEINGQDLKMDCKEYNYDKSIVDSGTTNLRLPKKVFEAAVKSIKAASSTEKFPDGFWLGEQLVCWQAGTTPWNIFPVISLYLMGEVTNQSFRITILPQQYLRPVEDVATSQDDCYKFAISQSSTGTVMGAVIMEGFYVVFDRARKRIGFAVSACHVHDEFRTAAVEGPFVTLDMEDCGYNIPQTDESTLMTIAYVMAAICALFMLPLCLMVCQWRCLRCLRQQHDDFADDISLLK

Cc1cc(Cl)cnc1C(=O)Nc1ccc(F)c([C@@]2(C)N=C(N)[C@]3(C)CC[C@@]2(C)S3(=O)=O)c1 [Example 32, N-(3-((1R,2R,5S)-4-amino-1,2,5-trimethyl-8,8-dioxido-8-thia-3-azabicyclo[3.2.1]oct-3-en-2-yl)-4-fluorophenyl)-5-chloro-3-methylpicolinamide]
IC50 (BACE1; [2]): 0.007 µM
IC50 [1, 3]: 0.017 µM
IC50 (Cathepsin D (Cat D)): 131 µM

C[C@]12CC[C@H]([C@@](C)(c3cc(Nc4nccc5nc(OCC6CC6)cnc45)ccc3F)N=C1N)S2(=O)=O [Example 67, N-(3-((1R,2R,5S)-4-amino-2,5-dimethyl-8,8-dioxido-8-thia-3-azabicyclo[3.2.1]oct-3-en-2-yl)-4-fluorophenyl)-2-(cyclopropylmethoxy)pyrido[3,4-b]pyrazin-5-amine]
IC50 (BACE1; [4]): 0.156 µM
IC50 [1, 5]: 0.522 µM
IC50 (Cathepsin D (Cat D); average IC50, first procedure): 99.3 µM

Cc1cc(C(F)(F)F)cnc1C(=O)Nc1ccc(F)c([C@@]2(C)N=C(N)[C@]3(C)CC[C@H]2S3(=O)=O)c1 [Example 27, N-(3-((1R,2R,5S)-4-Amino-2,5-dimethyl-8,8-dioxido-8-thia-3-azabicyclo[3.2.1]oct-3-en-2-yl)-4-fluorophenyl)-3-methyl-5-(trifluoromethyl)picolinamide]
IC50 (BACE1; [2]): 0.014 µM
IC50 [1, 3]: 0.002 µM
IC50 (Cathepsin D (Cat D)): 2040 µM

C[C@]1(c2cc(Nc3ncc(F)c4cc(Cl)cnc34)ccc2F)N=C(N)[C@@]2(C)CC[C@@H]1S2(=O)=O [Example 29, (1R,4R,5S)-2-Amino-4-(5-((3-chloro-5-fluoro-1,7-naphthyridin-8-yl)amino)-2-fluorophenyl)-1,4-dimethyl-8-thia-3-azabicyclo[3.2.1]oct-2-ene 8,8-dioxide]
IC50 (BACE1; [2]): 0.001 µM
IC50 [1, 3]: 0.052 µM
IC50 (Cathepsin D (Cat D)): 733 µM

C[C@]1(c2cc(NC(=O)c3c(F)cc(Br)cc3F)ccc2F)N=C(N)[C@@]2(C)CC[C@@H]1S2(=O)=O [Example 125, N-(3-((1S,2R,5R)-4-amino-2,5-dimethyl-8,8-dioxido-8-thia-3-azabicyclo[3.2.1]oct-3-en-2-yl)-4-fluorophenyl)-4-bromo-2,6-difluorobenzamide]
IC50 (BACE1; [4]): 0.103 µM
IC50 [1, 5]: 0.065 µM
IC50 (Cathepsin D (Cat D); average IC50, first procedure): > 400 µM

C[C@]1(c2cc(Nc3nccc4nc(OCC5CC5)cnc34)ccc2F)N=C(N)[C@@]2(C)CC[C@@H]1S2(=O)=O [Example 68, N-(3-((1S,2R,5R)-4-amino-2,5-dimethyl-8,8-dioxido-8-thia-3-azabicyclo[3.2.1]oct-3-en-2-yl)-4-fluorophenyl)-2-(cyclopropylmethoxy)pyrido[3,4-b]pyrazin-5-amine]
IC50 (BACE1; [4]): 0.005 µM
IC50 [1, 5]: 0.033 µM
IC50 (Cathepsin D (Cat D); average IC50, first procedure): > 400 µM

COCc1ccc(C(=O)Nc2ccc(F)c([C@@]3(C)N=C(N)[C@]4(C)CC[C@H]3S4(=O)=O)c2)nc1 [Example 91, N-(3-((1R,2R,5S)-4-amino-2,5-dimethyl-8,8-dioxido-8-thia-3-azabicyclo[3.2.1]oct-3-en-2-yl)-4-fluorophenyl)-5-(methoxymethyl)-2-pyridinecarboxamide]
IC50 (BACE1; [4]): 0.255 µM
IC50 [1, 5]: 0.046 µM
IC50 (Cathepsin D (Cat D); average IC50, first procedure): 3260 µM

CC#CCOc1cnc2c(Nc3ccc(F)c([C@@]4(C)N=C(N)[C@]5(C)CC[C@H]4S5(=O)=O)c3)ncc(F)c2c1 [Example 135, N-(3-((1R,2R,5S)-4-amino-2,5-dimethyl-8,8-dioxido-8-thia-3-azabicyclo[3.2.1]oct-3-en-2-yl)-4-fluorophenyl)-3-(2-butyn-1-yloxy)-5-fluoro-1,7-naphthyridin-8-amine]
IC50 (BACE1; [4]): 0.003 µM
IC50 [1, 5]: 0.021 µM
IC50 (Cathepsin D (Cat D); average IC50, first procedure): 614 µM

COc1cnc2c(Nc3ccc(F)c([C@@]4(C)N=C(N)[C@]5(C)CCC[C@H]4S5(=O)=O)c3)nccc2n1 [Example 2, (1S,4R,5R)-2-Amino-4-(2-fluoro-5-((2-methoxypyrido[3,4-b]pyrazin-5-yl)amino)phenyl)-1,4-dimethyl-9-thia-3-azabicyclo[3.3.1]non-2-ene 9,9-dioxide]
IC50 (BACE1; [2]): 0.13 µM
IC50 [1, 3]: 0.055 µM
IC50 (Cathepsin D (Cat D)): 166 µM

COCc1ccc(C(=O)Nc2ccc(F)c([C@@]3(C)N=C(N)[C@@]4(C)CC[C@@H]3S4(=O)=O)c2)nc1 [Example 90, N-(3-((1S,2R,5R)-4-amino-2,5-dimethyl-8,8-dioxido-8-thia-3-azabicyclo[3.2.1]oct-3-en-2-yl)-4-fluorophenyl)-5-(methoxymethyl)-2-pyridinecarboxamide]
IC50 (BACE1; [4]): 0.057 µM
IC50 [1, 5]: 0.02 µM
IC50 (Cathepsin D (Cat D); average IC50, first procedure): 3420 µM

Cc1cc(Cl)cnc1C(=O)Nc1ccc(F)c([C@@]2(C)N=C(N)[C@@]3(C)CCC[C@@H]2S3(=O)=O)c1 [Example 3, N-(3-((1S,2R,5R)-4-Amino-2,5-dimethyl-9,9-dioxido-9-thia-3-azabicyclo[3.3.1]non-3-en-2-yl)-4-fluorophenyl)-5-chloro-3-methylpicolinamide]
IC50 (BACE1; [2]): 0.002 µM
IC50 [1, 3]: 0.007 µM
IC50 (Cathepsin D (Cat D)): 119 µM

COc1ccc(C(=O)Nc2ccc(F)c([C@@]3(C)N=C(N)[C@@]4(C)CC[C@@H]3S4(=O)=O)c2)c(F)c1 [Example 123, N-(3-((1S,2R,5R)-4-amino-2,5-dimethyl-8,8-dioxido-8-thia-3-azabicyclo[3.2.1]oct-3-en-2-yl)-4-fluorophenyl)-2-fluoro-4-methoxybenzamide]
IC50 (BACE1; [4]): 0.13 µM
IC50 [1, 5]: 0.083 µM
IC50 (Cathepsin D (Cat D); average IC50, first procedure): 1620 µM

C[C@]1(c2cc(Nc3ncnc4cc(Cl)cnc34)ccc2F)N=C(N)[C@@]2(C)CC[C@@H]1S2(=O)=O [Example 130, N-(3-((1S,2R,5R)-4-amino-2,5-dimethyl-8,8-dioxido-8-thia-3-azabicyclo[3.2.1]oct-3-en-2-yl)-4-fluorophenyl)-7-chloropyrido[3,2-d]pyrimidin-4-amine]
IC50 (BACE1; [4]): 0.005 µM
IC50 [1, 5]: 0.004 µM
IC50 (Cathepsin D (Cat D); average IC50, first procedure): 363 µM

C[C@]1(c2cc(NC(=O)c3ccc(C#N)cc3F)ccc2F)N=C(N)[C@@]2(C)CC[C@@H]1S2(=O)=O [Example 127, N-(3-((1S,2R,5R)-4-amino-2,5-dimethyl-8,8-dioxido-8-thia-3-azabicyclo[3.2.1]oct-3-en-2-yl)-4-fluorophenyl)-4-cyano-2-fluorobenzamide]
IC50 (BACE1; [4]): 0.056 µM
IC50 [1, 5]: 0.025 µM
IC50 (Cathepsin D (Cat D); average IC50, first procedure): > 400 µM

COC[C@]12CC[C@H]([C@@](C)(c3cc(Nc4ncnc5cc(Cl)cnc45)ccc3F)N=C1N)S2(=O)=O [Example 141, N-(3-((1R,2R,5S)-4-amino-5-(methoxymethyl)-2-methyl-8,8-dioxido-8-thia-3-azabicyclo[3.2.1]oct-3-en-2-yl)-4-fluorophenyl)-7-chloropyrido[3,2-d]pyrimidin-4-amine]
IC50 (BACE1; [4]): 0.408 µM
IC50 [1, 5]: 0.327 µM
IC50 (Cathepsin D (Cat D); average IC50, first procedure): 1180 µM

Cn1ccc(COc2cnc3c(Nc4ccc(F)c([C@@]5(C)N=C(N)[C@@]6(C)CC[C@@H]5S6(=O)=O)c4)nccc3n2)n1 [Example 147, N-(3-((1S,2R,5R)-4-amino-2,5-dimethyl-8,8-dioxido-8-thia-3-azabicyclo[3.2.1]oct-3-en-2-yl)-4-fluorophenyl)-2-((1-methyl-1H-pyrazol-3-yl)methoxy)pyrido[3,4-b]pyrazin-5-amine]
IC50 (BACE1; [4]): 0.002 µM
IC50 [1, 5]: 0.001 µM
IC50 (Cathepsin D (Cat D); average IC50, first procedure): > 400 µM
